Source: article PMC10492782, “Exploiting the aggregation propensity of beta-lactamases to design inhibitors that induce enzyme misfolding” (Nature Communications, 2023)

Columns and labels:
[1] = tested on: clinical isolates of E. coli containing TEM or SHV enzymes; experiment: MIC of ampicillin with or without 30 µg/mL TEM3.2 in clinical isolates; assay type: cell-based, Escherichia coli; conditions: 30 μg/mL TEM3.2; 14 out of 16 isolates
Procedure: (§1) Determination of MIC values was performed using the broth microdilution method according to the EUCAST guideline, which was performed in 96-well polystyrene flat-bottom microtiter plates (BD Biosciences). Briefly, a single colony was inoculated into 5 mL Difco™ Mueller–Hinton Broth (BD Biosciences Ref 275730) and grown to the end-exponential growth phase in a shaking incubator at 37 °C. Cultures were subsequently diluted to a MacFarland (0.5 optical density) to reach 10^6 CFU/mL in fresh MHB medium. 50 µl of different concentrations of peptides ranging from 128 to 2 µg/mL were serially diluted to the sterile 96-well plate in MHB. 50 µL of the diluted bacteria in MHB were next pipetted into 96-well plates to reach the final volume of 100 µL. The bacteria grown with the maximum concentration of carrier and medium were considered positive and negative controls, respectively. The plates were statically incubated overnight at 37 °C to allow bacterial growth. OD was measured at 590 nm using a multipurpose ultraviolet–visible plate reader, and the absorbance of the bacterial growth was measured using an absorbance reader.

[2] = tested on: uro-pathogenic E. coli strain (UPEC strain blaTEM-1); experiment: MIC of ampicillin with or without 32 µg/mL TEM3.2 or tazobactam; assay type: cell-based, Escherichia coli; conditions: 32 μg/mL of either TEM3.2 or tazobactam
Procedure: We also performed a tolerability study using a dose escalation method by administering the peptide at 2, 5, 10, 15, and 20 mg/kg via different parenteral routes: intravenous (IV), intraperitoneal (IP), and subcutaneous (SC) in female C57BL/6JAX mice, aged 8–10 weeks (Suppl Table 4). […] Vehicle alone (0.9% NaCl) was also administered (IV). After 24 h the animals were sacrificed and the bacterial load in the bladder, kidney, and ureter was quantified by determining the number of colony-forming units (CFU) per mL of tissue extract (Fig. 7E–G).
as §1

E. coli TEM104 = conditions: checkerboard, strain containing TEM1 / TEM-1; FICI below 0.5 = synergy
Procedure: To quantify the synergy between these four peptides and penicillin G, we performed a so-called checkerboard assay, which allows us to compare the activity of two test compounds co-incubated (here peptide and a beta-lactam antibiotic), to their individual activities in isolation. […] We evaluated the synergy of the peptides with penicillin G in clinical E. coli isolates carrying the TEM (Fig. 3D) or SHV enzymes (Fig. 3E). […] The list of strains included some that harbored only TEM or SHV, but others contained additional Ambler Class A (CTX-M or OXA) or Class B (VIM and NDM) beta-lactamases.
For the analysis of synergy between the peptides and other antibiotics, a checkerboard assay was performed. Based on the MICs of the selected peptides, a checkerboard assay was designed to define their FICIs (Fractional Inhibitory Concentration Index) in combinations against different clinical isolates[53],[54]. Briefly, a total volume of 100 μL of Mueller–Hinton broth was distributed into each well of the 96-well plates. The first compound (peptide) of the combination was serially diluted vertically (128, 64, 32, 16, 8, 4, 2, 0 μg/mL) while the other drug (Beta-lactam or Kanamycin) was diluted horizontally in a 96-well plate (from 3200 to 3 μg/ mL). The total volume of each microtiter well was inoculated with 100 μL of MHB containing 1 × 10^6 CFU/mL bacteria. The plates were incubated at 37 °C for 24 h under aerobic conditions without shaking. Calculation of the FICI is used to analyze the results of the checkerboard assay by estimating the degree of synergistic effect. FICI is calculated as the sum of the individual fractional inhibitory concentrations (FICs) for each drug (where MIC A and MIC B denote the MIC of each drug alone, and MIC AA+B and MIC BA+B denote the concentrations of A and B in the drug combination). FICI = (MIC AA+B/MIC A) + (MIC BA+B/MIC B). With FICI ≤ 0.5, the combination of antibiotics is considered as a synergistic effect, 0.5 < FICI ≤ 1 indicates additivity, FICI > 1 indicates indifference.

HeLa cells = experiment: CellTiter Blue cell viability; conditions: 24 h, 37 °C, DMEM without serum
Procedure: Fig. 7 Evaluation of in vivo use of peptides that induce the aggregation of TEM beta-lactamase. A Lysis of human erythrocytes (hemolysis) was assessed in the presence of the indicated concentrations of TEM3.2 for 2 h at 37 °C, and normalized to the value obtained with 1% of the detergent triton. […] B Cell viability using the CellTiter Blue assay of HeLa cells treated for 24 h with the indicated concentrations TEM 3.2 at 37 °C. […] DAPI (4’,6-diamidino-2-phenylindole) is blue, while CellMask is red. D Experimental workflow of the in vivo model used in this study. E–G Bacterial load of indicated organs of female C57BL/6JAX mice with a urinary tract infection with E. coli strain UZ_TEM104, treated with 30 mg/kg penicillin (oral) as well 10 mg/kg tazobactam (oral) or 10 mg/kg TEM3.2 via the indicated treatment route. IV intravenous, IP intraperitoneal, SC subcutaneously. The data shown is from a single experiment with 12 animals for each group. The result for each animal is shown as a dot. […] The statistically significant differences were determined using ANOVA, followed by Dunnett’s multiple comparison test. […]
The Cell Titer Blue assay was performed to evaluate the cell viability according to the instructions of the manufacturer (Promega, USA). […] The fluorescence was measured at 590 nm by exciting at 560 nm with a ClarioStar plate reader (BMG Labtech, Germany).

[3] = Hematologic analysis after repeated dosing; conditions: daily IV injections, 5 mg/kg

Which “clinical isolates containing TEM or SHV sensitized to Ampicillin” value [1] does the source give for Ac-RLTAFLHNRRPRLTAFLRQRR-NH2 [TEM3.2] here?
Its value is 87%.

And the “MIC Ampicillin in the presence of additive” value [2]?
The value was 25 µg/mL.

And the “synergy with penicillin G (in words)” value (E. coli TEM104)?
Its value is “showed synergy in both strains”.

What about the “cytotoxicity, Cell Titer Blue (in words)” value (HeLa cells) of the same substance?
Its value is “not cytotoxic”.

What about the “hematologic analysis (in words)” value [3] of the same substance?
Its value is “no major discrepancies to vehicle-treated controls”.
